Assay results reported in patent US20050002861A1, “Enhanced scintigraphic imaging agents for imaging of infection and inflammation” (priority 2003, published 2005).
Where no end group is shown, it is not given here.

Test system: muscle tissue infected by E. coli
Assay: E. coli rabbit infection model: infection uptake and biodistribution of Tc-99m PGC's
Format: in vivo, New Zealand White (NZW) rabbits
Conditions: only some lysines replaced by arginine; compared with Tc-99m P1827H
Text: In yet another aspect of the present invention, the compositions of the invention are capable of achieving a favorable biodistribution that is characterized by a specific accumulation at the site to be imaged, e.g. in an infected muscle, and at the same time a low concentration in uninfected areas, such as normal muscle or blood. The biodistribution of the radiolabeled compositions of the invention may be expressed by means of an image contrast ratio. The image contrast ratio can be determined as the ratio Imax(infected muscle)/Imax(control muscle), hereinafter referred to as Imax:C, i.e., the maximum radioactivity accumulated in an infected muscle sample versus the maximum radioactivity accumulated in a control, i.e., uninfected, muscle sample. The radioactivity is measured as % of injected dose per gram of tissue/blood, i.e., % ID/g. For the determination of Imax values (and Iavg values; see below), the tissue or blood samples are divided into six parts of equal size/weight and the radioactivity in each of the six samples is counted. The sample with the highest radioactivity is used for the Imax value (the average of all six samples was used for Iavg). Imax (and Iavg) values are expressed as % ID/g. […]

Substance	improvement over Tc-99m P1827H
Ac-RRRRRCGCGGPLYKKIIKKLLES (cysteine pairing not given here) [P1828]	no significant improvement
Ac-KKKKKCGCGGPLYRRIIRRLLES (cysteine pairing not given here) [P1829]	no significant improvement
